According to PMC6155222, “3-Substituted N-Benzylpyrazine-2-carboxamide Derivatives: Synthesis, Antimycobacterial and Antibacterial Evaluation” (Molecules : A Journal of Synthetic Chemistry and Natural …, 2017):
Converted amounts (≈) assume the structure as drawn.

Assays:
[1] = test system: M. kansasii Hauduroy CNCTC My 235/80; test: Microplate Alamar Blue Assay (MABA), microdilution panel method; type: cell-based; conditions: Mycobacterium kansasii
[2] = test system: M. avium ssp. avium Chester CNCTC My 80/72; test: as above; type: cell-based; conditions: Mycobacterium avium
[3] = test system: Mycobacterium smegmatis CCM 4622 (ATCC 607); test: Antimycobacterial screening, microdilution broth panel method with resazurin; type: cell-based; conditions: Mycolicibacterium smegmatis, 48 h + 4 h
Method: An antimycobacterial assay was performed with fast growing Mycobacterium smegmatis CCM 4622 (ATCC 607) from the Czech Collection of Microorganisms (Brno, Czech Republic). The technique used for activity determination was a microdilution broth panel method using 96-well microtitration plates. The culturing medium was Middlebrook 7H9 (MB) broth (Sigma-Aldrich), enriched with 0.4% of glycerol (Sigma-Aldrich) and 10% of Middlebrook OADC growth supplement (Himedia, Mumbai, India). Tested compounds were dissolved in DMSO (Sigma-Aldrich), and the MB broth was then added to obtain a concentration of 2000 μg·mL^−1. Standards used for activity determination were isoniazid (INH), rifampicin (RIF), and ciprofloxacin (CPX) (Sigma-Aldrich). Final concentrations were reached by binary dilution and the addition of mycobacterial suspension, and were set as 500, 250, 125, 62.5, 31.25, 15.625, 7.81, and 3.91 μg·mL^−1, except for the standards of ciprofloxacin and rifampicin, where the final concentrations were 12.5, 6.25, 3.125, 1.56, 0.78, 0.39, 0.195, and 0.098 μg·mL^−1. […] Plates were also sealed with polyester adhesive film and incubated in the dark at 37 °C, without agitation. The addition of 0.01% solution of resazurin sodium salt followed after 48 h. This stain was prepared by dissolving resazurin sodium salt (Sigma-Aldrich) in deionised water, producing a 0.02% solution. Then, a 10% aqueous solution of Tween 80 (Sigma-Aldrich) was prepared. Both liquids were mixed up making use of the same volumes and filtered through a syringe membrane filter. Microtitration panels were then incubated for a further 4 h. Antimycobacterial activity was expressed as the minimal inhibition concentration (MIC) and the value was read on the basis of stain colour change (blue colour—active compound; pink colour—not active compound). […] All experiments were conducted in duplicate.

[4] = test system: Mycobacterium tuberculosis H37Rv; test: Microplate Alamar Blue Assay (MABA), microdilution panel method; type: cell-based
[5] = test system: Staphylococcus aureus H 5996/08-methicilin resistant (MRSA); test: Antibacterial microdilution broth method; type: cell-based; conditions: Staphylococcus aureus, MRSA, 24 h; read-out: MIC after 24 h MRSA
Method: (§1) Microdilution broth method. Antibacterial evaluation was performed against eight bacterial strains from the Czech Collection of Microorganisms (Brno, Czech Republic) (Staphylococcus aureus CCM 4516/08, Escherichia coli CCM 4517, Pseudomonas aeruginosa CCM 1961) or clinical isolates from the Department of Clinical Microbiology, University Hospital and Faculty of Medicine in Hradec Králové, Charles University in Prague, Czech Republic (Staphylococcus aureus H 5996/08-methicilin resistant (MRSA), Staphylococcus epidermidis H 6966/08, Enterococcus sp. J 14365/08, Klebsiella pneumoniae D 11750/08, Klebsiella pneumoniae J 14368/08-ESBL positive). All strains were subcultured on Mueller-Hinton agar (MHA) (Difco/Becton Dickinson, Detroit, MI, USA) at 35 °C and maintained on the same medium at 4 °C. The compounds were dissolved in DMSO, and the antibacterial activity was determined in Mueller-Hinton liquid broth (Difco/Becton Dickinson), and buffered to pH 7.0. Controls consisted of medium and DMSO alone. […] The minimum inhibitory concentration (MIC), defined as the minimum concentration to prevent the visible growth compared to control, was determined after 24 and 48 h of static incubation at 35 °C. The standards were neomycin, bacitracin, penicillin G, ciprofloxacin, and phenoxymethylpenicillin.

[6] = test system: Staphylococcus aureus CCM 4516/08; test: Antibacterial microdilution broth method; type: cell-based; conditions: CCM4516, 24 h, read-out: MIC after 24 h S. aureus
Method: as §1

[7] = test system: Staphylococcus epidermidis H 6966/08; test: Antibacterial microdilution broth method; type: cell-based; conditions: Staphylococcus epidermidis, H6966/08, 24 h; read-out: MIC after 24 h S. epidermidis
Method: as §1

[8] = Cytotoxicity assay, CellTiter 96 Aqueous One Solution; type: cell-based; conditions: human, HepG2 cells; for IC50 at 24 h: 24 h exposure
Method: The human liver hepatocellular carcinoma cell line HepG2 (passage 35–36), purchased from Health Protection Agency Culture Collections (ECACC, Salisbury, UK), was routinely cultured in Minimum Essential Eagle Medium MEM (Sigma-Aldrich) supplemented with 10% fetal bovine serum (PAA Laboratories GmbH, Pasching, Austria), 2mM L-glutamine solution (Sigma-Aldrich), and 1% non-essential amino acid solution (Sigma-Aldrich), in a humidified atmosphere containing 5% CO2 at 37 °C.
For subculturing, the cells were harvested after trypsin/EDTA (Sigma-Aldrich) treatment at 37 °C. To evaluate the cytotoxicity, the HepG2 cells treated with the tested substances were used as experimental groups, whereas untreated HepG2 cells served as control groups.
The HepG2 cells were seeded in a density of 1 × 10^4 cells per well on a 96-well plate. The following day (24 h after seeding), they were treated with tested substances dissolved in DMSO (maximal incubation concentration of DMSO was 1%). […] The treatment was carried out in a humidified atmosphere containing 5% CO2 at 37 °C, in triplicate, for 24 h. The controls representing 100% cell viability, 0% cell viability (the cells treated with 10% DMSO), no-cell controls, and vehiculum controls were incubated in triplicate, simultaneously. After 24 h exposure, the reagent from the kit CellTiter 96® Aqueous One Solution Cell Proliferation Assay (Promega) was added, according to the recommendation of the manufacturer. After 2 h incubation at 37 °C in humidified, 5% CO2 atmosphere, the absorbance was recorded at 490 nm. Inhibitory curves were constructed for each compound, plotting incubation concentrations vs. percentage of absorbance relative to untreated control. The standard toxicological parameter IC50 was calculated by a nonlinear regression analysis of the inhibitory curves using GraphPad Prism software (version 6, GraphPad Software, Inc., La Jolla, CA, USA).

[9] = Determination of lipophilicity by RP-HPLC (log k); conditions: RP-HPLC capacity factor, MeOH 70% / H2O 30%, C18, 30 °C
Method: Log k was determined using an Agilent Technologies 1200 SL liquid chromatograph with Diode-array Detector SL G1315C (Agilent Technologies Inc., Colorado Springs, CO, USA), with pre-column ZORBAX XDB-C18 5 μm, 4 mm × 4 mm, Part No. 7995118-504 (Agilent Technologies Inc.) and column ZORBAX Eclipse XDB-C18 5 μm, 4.6 mm × 250 mm, Part No. 7995118-585 (Agilent Technologies Inc.). The separation process was controlled by Agilent ChemStation, version B.04.02, extended by a spectral module (Agilent Technologies Inc.). The mobile phase consisted of MeOH (HPLC grade, 70%) and H2O (HPLC-Milli-Q Grade, 30%).
The flow rate was 1.0 mL/min, samples were injected in a volume of 20 μL, and the column temperature was 30 °C. A value of 210 nm as the detection wavelength and 270 nm as the monitor wavelength were used. Retention times (tR) were measured in minutes. The dead time of the system (tD) was determined as the retention time of the KI methanol solution. Capacity factors k for individual compounds were calculated according to the formula k = (tR − tD)/tD. Log k, calculated from the capacity factor k, as used as the lipophilicity index converted to log scale.

In the case of `NNC(=O)c1ccncc1` [INH, isoniazid, reference compound], the MIC [1] was 3.13 to 12.5 µg/mL (≈ 22.8 to 91.1 µM), the MIC [2] was 6.25 to 12.5 µg/mL (≈ 45.6 to 91.1 µM) and the MIC [3] was 7.81 to 15.6 µg/mL. For the same compound, the MIC ([4]; pH 6.6) was 0.2 µg/mL.

Work on `O=C(NCc1ccccc1Cl)c1nccnc1Cl` [Compound 5, 3-Chloro-N-(2-chlorobenzyl)pyrazine-2-carboxamide] yielded an MIC [5] of 500 µM (≈ 141 µg/mL), an MIC [6] of 7.81 µM (≈ 2.2 µg/mL) and an MIC [7] of 15.6 µM (≈ 4.41 µg/mL). The selectivity ratio at 24 h ([8]; HepG2 IC50 / MIC S. aureus, read-out: selectivity index, SI = IC50/MIC) was 108, the IC50 at 24 h [8] was 847 µM and the Log k [9] was 0.033. The MIC [3] was 250 µg/mL and the MIC ([4]; pH 6.6) was greater than 100 µg/mL.

`COc1ccc(CNC(=O)c2nccnc2NCc2ccc(OC)cc2)cc1` [Compound 3a, N-(4-Methoxybenzyl)-3-((4-methoxybenzyl)amino)pyrazine-2-carboxamide] gave an MIC [5] of 62.5 µM (≈ 23.7 µg/mL), an MIC [6] of 15.6 µM (≈ 5.91 µg/mL) and an MIC [7] greater than 500 µM. The IC50 at 24 h [8] was greater than 100 µM, the Log k [9] was 0.981 and the MIC [3] was greater than 500 µg/mL. For the same compound, the MIC ([4]; pH 6.6) was 50 µg/mL and the MIC ([4]; value in parentheses) was 132 µM.

Compound `O=C(NCc1ccc(Cl)cc1)c1nccnc1NCc1ccc(Cl)cc1` [Compound 7a, N-(4-Chlorobenzyl)-3-((4-chlorobenzyl)amino)pyrazine-2-carboxamide] has a Log k [9] of 1.533, an MIC [1] greater than 50 µg/mL and an MIC [2] greater than 50 µg/mL. The MIC [3] was greater than 250 µg/mL and the MIC ([4]; pH 6.6) was greater than 50 µg/mL.

Compound `O=C(NCc1ccc(Cl)c(Cl)c1)c1nccnc1NCc1ccc(Cl)c(Cl)c1` [Compound 9a, N-(3,4-Dichlorobenzyl)-3-((3,4-dichlorobenzyl)amino)pyrazine-2-carboxamide] has an IC50 at 24 h [8] greater than 100 µM, a Log k [9] of 1.997 and an MIC [3] greater than 500 µg/mL. The MIC ([4]; pH 6.6) was 12.5 µg/mL and the MIC ([4]; value in parentheses) was 27 µM.
